Assay results as given in patent publication US11492335B2, “Aryl or heteroaryl triazolone derivatives or salts thereof, or pharmaceutical compositions comprising the same” (YUHAN CORPORATION, priority 2018, dated 2022).
Structures can show the parent of a compound that is named as a salt.

What was measured:
Format in all cases: biochemical
[1] = molecular target: T1, recombinant human DAO (diamine oxidase) (Homo sapiens, UniProt P19801); assay: Activity on recombinant human DAO, Amplex Red method, 1 mM putrescine substrate; conditions: recombinant human DAO, 1 mM putrescine; * = between 10 and 100 nM, ** = between 300 and 1000 nM; read-out: Inhibitory Activity (IC50, nM) DAO
T1 construct: purchased R&D systems
T1 sequence (P19801 20-751): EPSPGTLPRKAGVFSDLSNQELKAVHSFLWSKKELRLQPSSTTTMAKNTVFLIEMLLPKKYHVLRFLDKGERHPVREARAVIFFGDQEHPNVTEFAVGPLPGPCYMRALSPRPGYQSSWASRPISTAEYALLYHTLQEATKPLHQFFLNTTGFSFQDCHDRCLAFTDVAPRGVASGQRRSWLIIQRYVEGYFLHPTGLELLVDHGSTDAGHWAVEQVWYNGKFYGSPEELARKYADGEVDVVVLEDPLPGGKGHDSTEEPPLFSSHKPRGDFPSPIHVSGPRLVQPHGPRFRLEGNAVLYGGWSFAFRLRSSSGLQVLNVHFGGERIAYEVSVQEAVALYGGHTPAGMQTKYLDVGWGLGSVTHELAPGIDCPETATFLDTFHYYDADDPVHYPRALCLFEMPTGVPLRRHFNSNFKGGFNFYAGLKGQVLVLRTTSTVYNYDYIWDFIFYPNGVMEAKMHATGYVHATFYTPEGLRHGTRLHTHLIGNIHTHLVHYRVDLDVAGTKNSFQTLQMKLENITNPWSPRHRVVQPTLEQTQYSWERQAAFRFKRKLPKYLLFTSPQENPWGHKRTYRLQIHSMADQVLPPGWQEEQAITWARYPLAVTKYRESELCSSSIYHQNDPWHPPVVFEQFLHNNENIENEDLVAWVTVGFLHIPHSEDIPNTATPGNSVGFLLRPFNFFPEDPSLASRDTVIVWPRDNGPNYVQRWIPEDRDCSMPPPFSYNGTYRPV
Description: (§1) The compounds according to the present technology were evaluated in terms of activity on recombinant human VAP-1 (R&D systems) by measuring the level of hydrogen peroxide in horseradish peroxidase (HRP)-coupled reaction using Amplex Red Hydrogen Peroxide Assay Kit (Molecular Probes, Invitrogen, USA). The experiment was carried out at room temperature using benzylamine as a substrate. In the HRP-coupled reaction, hydrogen peroxide oxidation of 10-acetyl-3,7-dihydroxyphenoxazine (Amplex Red reagent) produces resorufin, which is a highly fluorescent compound. Briefly, the test compound was dissolved in dimethyl sulfoxide (DMSO) at a concentration of 20 mM. The dose-response assessment was made by 1:3 serial dilution in DMSO, thereby creating an 8 point curve. The concentration of the upper part was controlled according to the efficacy of the compounds, followed by dilution with a reaction buffer solution to obtain a final DMSO concentration less than 1%. To each well of a 96 black well plate, human VAP-1 purified in 50 mM sodium phosphate buffer solution (pH7.4) was added. The test compounds dissolved in DMSO were incubated with the human VAP-1 enzymes at 37° C. for 30 minutes. After 30-minute incubation, each well is added with a reaction mixture containing 200 uM Amplex Red reagent prepared from 50 mM sodium phosphate buffer solution (pH 7.4), 1 mM benzylamine, and 1 U/mL HRP. Fluorescence intensity was measured at several time points during 1-2 hours using a microplate reader (Flexstation3, Molecular Devices) under the wavelength condition exciting at 544 nm and reading the emission at 590 nm. The inhibitory effect of the compounds was measured as a decrease (%) in the signal rate as compared to the control group without any inhibitor (only diluted DMSO). Data was fixed to a logistic model with four variables and IC50 value was calculated using GraphPad Prism program.
(§2) In addition, the compounds according to the present technology were evaluated in terms of activity on a recombinant human MAO-A (monoamine oxidase-A, Sigma-Aldrich) and a recombinant human MAO-B (monoamine oxidase-B, Sigma-Aldrich) by using as substrates, 0.5 mM tyramine and 1 mM benzylamine, respectively, with a method similar to the activity evaluation method for recombinant human VAP-1. The compounds according to the present technology were also evaluated in terms of activity on a recombinant human DAO (diamine oxidase, R&D systems) by using as a substrate 1 mM putrescine with a method similar to the activity evaluation method for recombinant human VAP-1.

[2] = molecular target: T2, recombinant human MAO-B (monoamine oxidase-B) (Homo sapiens, UniProt P27338); assay: Activity on recombinant human MAO-B, Amplex Red method, 1 mM benzylamine substrate; conditions: 1 mM benzylamine, read-out: Inhibitory Activity (IC50, nM) MAO-B
T2 construct: purchased Sigma-Aldrich
T2 sequence (P27338 1-520): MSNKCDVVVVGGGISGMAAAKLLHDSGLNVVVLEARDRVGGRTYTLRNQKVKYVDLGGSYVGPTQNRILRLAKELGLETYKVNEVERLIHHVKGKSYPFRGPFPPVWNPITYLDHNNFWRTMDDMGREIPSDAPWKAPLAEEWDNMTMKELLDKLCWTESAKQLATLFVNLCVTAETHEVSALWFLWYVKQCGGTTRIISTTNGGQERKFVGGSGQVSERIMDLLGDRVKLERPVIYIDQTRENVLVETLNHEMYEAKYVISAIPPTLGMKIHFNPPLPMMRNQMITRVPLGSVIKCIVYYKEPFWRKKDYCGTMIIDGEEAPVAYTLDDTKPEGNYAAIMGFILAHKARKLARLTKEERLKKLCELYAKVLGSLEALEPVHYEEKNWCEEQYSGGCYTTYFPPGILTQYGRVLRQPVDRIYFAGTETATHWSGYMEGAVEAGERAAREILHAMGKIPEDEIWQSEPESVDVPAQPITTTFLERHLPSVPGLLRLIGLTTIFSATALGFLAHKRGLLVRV
Description: as §1, §2

recombinant human VAP-1 = molecular target: T3, recombinant human VAP-1 (Homo sapiens, UniProt Q16853); assay: Activity on recombinant human VAP-1, Amplex Red HRP-coupled hydrogen peroxide assay, benzylamine substrate; conditions: recombinant human VAP-1, benzylamine substrate, 30 min preincubation at 37° C.; read-out: Inhibitory Activity (IC50, nM) human VAP-1
T3 construct: purchased R&D systems
T3 sequence (Q16853 1-763): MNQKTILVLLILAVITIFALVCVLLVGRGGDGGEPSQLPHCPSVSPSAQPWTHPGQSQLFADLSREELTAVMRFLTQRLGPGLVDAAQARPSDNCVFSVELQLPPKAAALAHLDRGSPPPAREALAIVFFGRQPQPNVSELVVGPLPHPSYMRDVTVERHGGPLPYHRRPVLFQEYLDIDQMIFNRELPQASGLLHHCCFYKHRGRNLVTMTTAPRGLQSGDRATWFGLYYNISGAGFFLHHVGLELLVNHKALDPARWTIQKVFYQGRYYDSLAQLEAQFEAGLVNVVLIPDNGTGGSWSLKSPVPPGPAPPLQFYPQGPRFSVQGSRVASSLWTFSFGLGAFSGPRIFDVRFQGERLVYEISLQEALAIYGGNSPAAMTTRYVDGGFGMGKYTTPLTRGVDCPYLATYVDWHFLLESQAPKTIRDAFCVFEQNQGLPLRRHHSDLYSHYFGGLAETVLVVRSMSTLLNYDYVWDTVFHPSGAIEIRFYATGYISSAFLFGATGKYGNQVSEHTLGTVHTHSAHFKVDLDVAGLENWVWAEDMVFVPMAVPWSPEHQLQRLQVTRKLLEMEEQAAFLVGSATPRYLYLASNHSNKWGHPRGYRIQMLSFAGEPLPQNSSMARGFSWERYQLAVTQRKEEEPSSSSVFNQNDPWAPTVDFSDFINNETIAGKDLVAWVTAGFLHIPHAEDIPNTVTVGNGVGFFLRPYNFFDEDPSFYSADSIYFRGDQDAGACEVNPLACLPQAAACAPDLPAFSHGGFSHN
Description: as §1

[3] = molecular target: T4, recombinant human MAO-A (monoamine oxidase-A) (Homo sapiens, UniProt P21397); assay: Activity on recombinant human MAO-A, Amplex Red method, 0.5 mM tyramine substrate; conditions: 0.5 mM tyramine, read-out: Inhibitory Activity (IC50, nM) MAO-A
T4 construct: purchased Sigma-Aldrich
T4 sequence (P21397 1-527): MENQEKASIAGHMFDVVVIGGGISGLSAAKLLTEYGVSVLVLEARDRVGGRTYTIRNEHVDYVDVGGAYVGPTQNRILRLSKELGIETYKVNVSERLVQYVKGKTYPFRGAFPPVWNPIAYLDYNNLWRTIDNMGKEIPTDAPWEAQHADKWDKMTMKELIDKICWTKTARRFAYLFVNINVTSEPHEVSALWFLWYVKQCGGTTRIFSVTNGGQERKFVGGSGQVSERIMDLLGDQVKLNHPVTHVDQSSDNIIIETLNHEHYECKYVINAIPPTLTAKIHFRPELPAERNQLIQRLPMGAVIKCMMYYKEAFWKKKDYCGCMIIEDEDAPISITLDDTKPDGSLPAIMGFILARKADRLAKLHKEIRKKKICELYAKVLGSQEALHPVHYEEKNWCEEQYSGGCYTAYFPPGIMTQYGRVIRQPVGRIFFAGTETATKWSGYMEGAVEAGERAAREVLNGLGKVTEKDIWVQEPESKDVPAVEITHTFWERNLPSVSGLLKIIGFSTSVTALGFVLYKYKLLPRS
Description: as §1, §2

SMILES | IC50 [1] [nM] | IC50 [2] [nM] | IC50 (recombinant human VAP-1) [nM] | IC50 [3] [nM]
NC/C(=C\F)Cn1ncn(-c2ccc(Br)cc2)c1=O [Example 2, 2-[(2E)-2-(aminomethyl)-3-fluoroprop-2-en-1-yl]-4-(4-bromophenyl)-2,4-dihydro-3H-1,2,4-triazol-3-one] | 120 | 86 | 0.9 | 2900
NC/C(=C/F)Cn1ncn(-c2cccc(Br)c2)c1=O [Example 3, 2-[(2Z)-2-(aminomethyl)-3-fluoroprop-2-en-1-yl]-4-(3-bromophenyl)-2,4-dihydro-3H-1,2,4-triazol-3-one hydrochloride] | 542 | 121 | 2.5 | 3500
NC/C(=C\F)Cn1ncn(-c2cccc(Br)c2)c1=O [Example 4, 2-[(2E)-2-(aminomethyl)-3-fluoroprop-2-en-1-yl]-4-(3-bromophenyl)-2,4-dihydro-3H-1,2,4-triazol-3-one hydrochloride] | 90 | 175 | 1.2 | > 100000
NC/C(=C/F)Cn1ncn(-c2ccc(F)cc2)c1=O [Example 5, 2-[(2Z)-2-(aminomethyl)-3-fluoroprop-2-en-1-yl]-4-(4-fluorophenyl)-2,4-dihydro-3H-1,2,4-triazol-3-one] | 1100 | 260 | 3.8 | 1600
NC/C(=C\F)Cn1ncn(-c2ccc(F)cc2)c1=O [Example 6, 2-[(2E)-2-(aminomethyl)-3-fluoroprop-2-en-1-yl]-4-(4-fluorophenyl)-2,4-dihydro-3H-1,2,4-triazol-3-one hydrochloride] | 1100 | > 10000 | 3.7 | > 100000

Next, values leading:

IC50 [1] [nM] | IC50 [2] [nM] | IC50 (recombinant human VAP-1) [nM] | IC50 [3] [nM] | SMILES
47 | 8 | 0.88 | 2100 | NC/C(=C/F)Cn1ncn(-c2ccc(OCc3ccccc3)cc2)c1=O [Example 7, 2-[(2Z)-2-(aminomethyl)-3-fluoroprop-2-en-1-yl]-4-[4-(benzyloxy)phenyl]-2,4-dihydro-3H-1,2,4-triazol-3-one]
38 | 10 | 0.6 | 54000 | NC/C(=C\F)Cn1ncn(-c2ccc(OCc3ccccc3)cc2)c1=O [Example 8, 2-[(2E)-2-(aminomethyl)-3-fluoroprop-2-en-1-yl]-4-[4-(benzyloxy)phenyl]-2,4-dihydro-3H-1,2,4-triazol-3-one hydrochloride]
290 | 85 | 5.4 | 2100 | NC/C(=C/F)Cn1ncn(-c2ccc(F)c(F)c2)c1=O [Example 9, 2-[(2Z)-2-(aminomethyl)-3-fluoroprop-2-en-1-yl]-4-(3,4-difluorophenyl)-2,4-dihydro-3H-1,2,4-triazol-3-one]
100 | 1610 | 2.4 | > 100000 | NC/C(=C\F)Cn1ncn(-c2ccc(F)c(F)c2)c1=O [Example 10, 2-[(2E)-2-(aminomethyl)-3-fluoroprop-2-en-1-yl]-4-(3,4-difluorophenyl)-2,4-dihydro-3H-1,2,4-triazol-3-one hydrochloride]
209 | 12 | 1.5 | 200 | NC/C(=C/F)Cn1ncn(-c2ccc(Br)cc2F)c1=O [Example 11, 2-[(2Z)-2-(aminomethyl)-3-fluoroprop-2-en-1-yl]-4-(4-bromo-2-fluorophenyl)-2,4-dihydro-3H-1,2,4-triazol-3-one hydrochloride]
38 | 281 | 0.75 | 1500 | NC/C(=C\F)Cn1ncn(-c2ccc(Br)cc2F)c1=O [Example 12, 2-[(2E)-2-(aminomethyl)-3-fluoroprop-2-en-1-yl]-4-(4-bromo-2-fluorophenyl)-2,4-dihydro-3H-1,2,4-triazol-3-one hydrochloride]
67 | 3.3 | 2.3 | 155 | NC/C(=C/F)Cn1ncn(-c2ccc(Br)c(F)c2)c1=O [Example 13, 2-[(2Z)-2-(aminomethyl)-3-fluoroprop-2-en-1-yl]-4-(4-bromo-3-fluorophenyl)-2,4-dihydro-3H-1,2,4-triazol-3-one]
